Measured values from ChEMBL document CHEMBL5356960, “Discovery of Selective and Orally Available Galectin-1 Inhibitors” (J Med Chem, 2023).
The source made the active and inactive calls. The rule behind the calls is not given here.

Assays:
Galectin-1 [1] = target: T1, Galectin-1 (Homo sapiens, UniProt P09382); experiment: Binding affinity to human galectin 1 assessed as dissociation constant incubated for 30 mins in presence of TDGA probe by fluorescence polarization assay
Galectin-3 [2] = target: T2, Galectin-3 (Homo sapiens, UniProt P17931); experiment: Binding affinity to human galectin-3 assessed as dissociation constant by fluorescence polarization assay
[3] = Lipophilicity, logD of compound at pH 7.4 preincubated with octanol for 5 mins followed by phosphate buffer addition and measured after 1 hrs by shakeflask method based LC-MS/MS analysis; type: physicochemical; details: time 65 min
[4] = Apparent permeability from apical to basolateral side in human Caco-2 cells at 10 uM incubated for 90 mins by LC-MS/MS analysis; type: ADME, cell-based
[5] = Apparent permeability from basolateral to apical side in human Caco-2 cells at 10 uM incubated for 90 mins by LC-MS/MS analysis; type: ADME, cell-based
[6] = Metabolic stability in human hepatocytes assessed as intrinsic clearance measured per 10^6 cells at 2 uM incubated for 15 to 120 mins by LC-MS/MS analysis; type: ADME, cell-based, Hepatocyte; details: time 15-120 min, read-out: CLH
[7] = Metabolic stability in mouse hepatocytes assessed as intrinsic clearance measured per 10^6 cells at 2 uM incubated for 15 to 120 mins by LC-MS/MS analysis; type: ADME, cell-based, Hepatocyte; details: time 15-120 min, read-out: CLH
[8] = Protein binding in human plasma assessed as unbound fraction at 2 uM incubated for 5 hrs by equilibrium dialysis based LC-MS/MS analysis; type: ADME, cell-free
[9] = Protein binding in mouse plasma assessed as unbound fraction at 2 uM incubated for 5 hrs by equilibrium dialysis based LC-MS/MS analysis; type: ADME, cell-free
[10] = Cytotoxicity against human A549 cells assessed as inhibition of cell growth incubated for 72 hrs by MTT assay; type: toxicity, cell-based
Galectin-4 [11] = target: T3, Galectin-4 (Homo sapiens, UniProt P56470); experiment: Binding affinity to N-terminal human Galectin-4 assessed as dissociation constant by fluorescence polarization assay
T3 sequence (P56470 whole entry): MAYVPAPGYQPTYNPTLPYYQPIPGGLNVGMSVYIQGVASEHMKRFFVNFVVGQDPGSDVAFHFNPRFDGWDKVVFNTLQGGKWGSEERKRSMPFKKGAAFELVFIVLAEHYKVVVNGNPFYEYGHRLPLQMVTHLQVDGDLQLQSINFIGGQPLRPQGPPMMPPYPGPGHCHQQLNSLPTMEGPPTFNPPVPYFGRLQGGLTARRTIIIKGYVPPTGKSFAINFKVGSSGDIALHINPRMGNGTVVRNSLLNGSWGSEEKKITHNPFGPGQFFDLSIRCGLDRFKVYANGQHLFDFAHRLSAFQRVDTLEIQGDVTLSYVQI

Galectin-4 [12] = target: T3, Galectin-4; experiment: Binding affinity to C-terminal human Galectin-4 assessed as dissociation constant by fluorescence polarization assay
Galectin-7 = Galectin-7 (Homo sapiens, UniProt P47929); experiment: Binding affinity to human Galectin-7 assessed as dissociation constant by fluorescence polarization assay
Galectin-8 [13] = target: T4, Galectin-8 (Homo sapiens, UniProt O00214); experiment: Binding affinity to N-terminal human Galectin-8 assessed as dissociation constant by fluorescence polarization assay
T4 sequence (O00214 whole entry): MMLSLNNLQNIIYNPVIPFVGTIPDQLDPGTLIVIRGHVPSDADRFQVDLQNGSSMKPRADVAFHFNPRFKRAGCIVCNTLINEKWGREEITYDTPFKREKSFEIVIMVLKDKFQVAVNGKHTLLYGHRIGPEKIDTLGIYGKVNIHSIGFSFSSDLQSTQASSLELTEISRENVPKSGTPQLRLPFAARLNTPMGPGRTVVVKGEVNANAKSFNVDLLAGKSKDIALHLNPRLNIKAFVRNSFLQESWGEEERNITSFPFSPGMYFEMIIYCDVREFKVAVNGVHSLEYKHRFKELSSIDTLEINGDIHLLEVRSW

Galectin-8 [14] = target: T4, Galectin-8; experiment: Binding affinity to C-terminal human Galectin-8 assessed as dissociation constant by fluorescence polarization assay
Galectin-9 [15] = target: T5, Galectin-9 (Homo sapiens, UniProt O00182); experiment: Binding affinity to N-terminal human Galectin-9 assessed as dissociation constant by fluorescence polarization assay
Galectin-9 [16] = target: T5, Galectin-9; experiment: Binding affinity to C-terminal human Galectin-9 assessed as dissociation constant by fluorescence polarization assay
Galectin-1 [17] = target: T6, Galectin-1 (Mus musculus, UniProt P16045); experiment: Binding affinity to mouse Galectin-1 assessed as dissociation constant incubated for 30 mins in the presence of TDGA probe by fluorescence polarization assay
Galectin-3 [18] = target: T7, Galectin-3 (Mus musculus, UniProt P16110); experiment: Binding affinity to mouse Galectin-3 assessed as dissociation constant by fluorescence polarization assay
Galectin-1 [19] = target: T1, Galectin-1; experiment: Binding affinity to human galectin-1 assessed as dissociation constant by SPR analysis
Galectin-1 [20] = target: T6, Galectin-1; experiment: Binding affinity to mouse full-length galectin-1 assessed as dissociation constant by SPR analysis
Galectin-3 [21] = target: T2, Galectin-3; experiment: Binding affinity to human galectin-3 assessed as dissociation constant by SPR analysis
Galectin-3 [22] = target: T7, Galectin-3; experiment: Binding affinity to mouse full-length galectin-3 assessed as dissociation constant by SPR analysis
A549 = experiment: Cytotoxicity against human A549 cells assessed as reduction in cell viability incubated for 72 hrs by MTT assay relative to control; type: toxicity, cell-based; details: a549, 72 h
Jurkat [23] = experiment: Inhibition of galectin-1 induced apoptosis in human Jurkat T cells assessed as reduction in caspase-3 activation incubated for 24 hrs by CellEvent caspase-3/7 green fluorescent detection reagent based imaging analysis
[24] = Clearance in C57BL/6 mouse at 1 mg/kg, iv measured upto 8 hrs by HPLC analysis; type: ADME, organism-based; details: in vivo
[25] = Volume of distribution at steady state in C57BL/6 mouse at 1 mg/kg, iv measured upto 8 hrs by HPLC analysis; type: ADME, organism-based; details: in vivo, read-out: Vdss
[26] = Tmax in C57BL/6 mouse at 10 mg/kg, po or 1 mg/kg, iv by HPLC analysis; type: ADME, organism-based; details: in vivo
[27] = Cmax in C57BL/6 mouse at 10 mg/kg, po or 1 mg/kg, iv by HPLC analysis; type: ADME, organism-based; design: dose 10 mg/kg, route po; details: in vivo
[28] = AUCinfinity in C57BL/6 mouse at 10 mg/kg, po or 1 mg/kg, iv by HPLC analysis; type: ADME, organism-based; design: dose 10 mg/kg, route po; details: in vivo
[29] = Oral bioavailability in C57BL/6 mouse at 10 mg/kg measured upto 24 hrs by HPLC analysis; type: ADME, organism-based; details: in vivo
Galectin-1 [30] = target: T1, Galectin-1; experiment: Binding affinity to galectin-1 (unknown origin) assessed as dissociation constant
Galectin-3 [31] = target: T2, Galectin-3; experiment: Binding affinity to galectin-3 (unknown origin) assessed as dissociation constant
Jurkat [32] = experiment: Inhibition of galectin-1 induced apoptosis in human Jurkat T cells assessed as reduction in caspase-3 activation upto 24 uM incubated for 24 hrs by CellEvent caspase-3/7 green fluorescent detection reagent based imaging analysis; type: functional, cell-based

T2 sequence (P17931 whole entry): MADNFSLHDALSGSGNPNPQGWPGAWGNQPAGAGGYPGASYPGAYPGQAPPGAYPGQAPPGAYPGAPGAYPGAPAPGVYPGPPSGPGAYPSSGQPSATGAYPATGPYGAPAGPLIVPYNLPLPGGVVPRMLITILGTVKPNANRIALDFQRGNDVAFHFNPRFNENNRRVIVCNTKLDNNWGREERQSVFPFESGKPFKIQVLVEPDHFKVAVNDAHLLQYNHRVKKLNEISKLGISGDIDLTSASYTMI
T1 sequence (P09382 whole entry): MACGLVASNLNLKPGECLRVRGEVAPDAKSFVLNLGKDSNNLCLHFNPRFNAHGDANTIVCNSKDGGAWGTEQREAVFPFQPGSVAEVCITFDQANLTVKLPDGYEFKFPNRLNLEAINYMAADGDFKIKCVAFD
T5 sequence (O00182 whole entry): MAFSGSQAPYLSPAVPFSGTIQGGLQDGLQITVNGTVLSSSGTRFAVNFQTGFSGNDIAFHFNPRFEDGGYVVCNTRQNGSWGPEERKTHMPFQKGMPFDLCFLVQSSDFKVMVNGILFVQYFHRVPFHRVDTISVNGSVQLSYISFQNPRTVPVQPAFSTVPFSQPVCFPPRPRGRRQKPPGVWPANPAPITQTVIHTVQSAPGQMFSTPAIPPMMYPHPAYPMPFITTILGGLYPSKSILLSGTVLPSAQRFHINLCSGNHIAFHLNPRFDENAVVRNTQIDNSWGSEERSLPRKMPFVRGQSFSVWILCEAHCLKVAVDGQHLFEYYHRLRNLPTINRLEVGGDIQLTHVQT
T7 sequence (P16110 whole entry): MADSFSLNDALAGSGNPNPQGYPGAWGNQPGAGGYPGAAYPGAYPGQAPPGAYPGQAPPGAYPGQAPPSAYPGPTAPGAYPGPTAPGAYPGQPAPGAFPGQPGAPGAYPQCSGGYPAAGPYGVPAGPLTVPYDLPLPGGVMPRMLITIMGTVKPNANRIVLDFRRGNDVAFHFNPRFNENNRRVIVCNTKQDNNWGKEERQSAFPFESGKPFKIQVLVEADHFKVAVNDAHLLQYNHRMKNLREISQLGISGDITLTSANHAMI
T6 sequence (P16045 whole entry): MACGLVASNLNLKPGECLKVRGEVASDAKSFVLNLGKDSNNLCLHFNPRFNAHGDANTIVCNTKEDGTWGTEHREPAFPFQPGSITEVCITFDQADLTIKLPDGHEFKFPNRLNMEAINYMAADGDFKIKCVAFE
Galectin-7, sequence (P47929 whole entry): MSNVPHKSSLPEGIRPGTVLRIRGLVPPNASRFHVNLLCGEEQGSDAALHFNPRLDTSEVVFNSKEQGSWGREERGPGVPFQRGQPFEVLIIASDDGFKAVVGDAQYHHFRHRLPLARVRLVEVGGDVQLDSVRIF

OC[C@H]1O[C@H](Sc2ccc(Cl)c(Cl)c2)[C@H](O)[C@@H](n2cc(-c3ncco3)nn2)[C@H]1O
Kd (Galectin-1 [1]): 2700 nM | Kd (Galectin-3 [2]): 11000 nM

OC[C@H]1O[C@H](Sc2cc(Cl)c(F)c(Cl)c2)[C@H](O)[C@@H](n2cc(-c3cscn3)nn2)[C@H]1O
logD at 1 h [3]: 2.9 | Kd (Galectin-1 [1]): 330 nM | Kd (Galectin-3 [2]): 2900 nM | Papp A→B at 1.5 h, 10 µM [4]: 9 ×10⁻⁶ cm/s | Papp B→A at 1.5 h, 10 µM [5]: 30 ×10⁻⁶ cm/s | hepatocyte CLint at 2 µM [6]: < 1 µL/min/1e6 cells | hepatocyte CLint at 2 µM [7]: < 1.5 µL/min/1e6 cells | fraction unbound at 5 h, 2 µM [8]: 0.033 | fraction unbound at 5 h, 2 µM [9]: 0.015

OC[C@H]1O[C@H](Sc2cc(Cl)c(F)c(Cl)c2)[C@H](O)[C@@H](n2cc(-c3cncs3)nn2)[C@H]1O
Kd (Galectin-1 [1]): 22000 nM | Kd (Galectin-3 [2]): 3000 nM

OC[C@H]1O[C@H](Sc2ccc(Cl)c(Cl)c2)[C@H](O)[C@@H](n2cc(-c3ncsn3)nn2)[C@H]1O
Kd (Galectin-1 [1]): 2000 nM | Kd (Galectin-3 [2]): 3400 nM

OC[C@H]1O[C@H](Sc2ccc(Cl)c(Cl)c2)[C@H](O)[C@@H](n2cc(-c3cc(F)c(F)c(F)c3)nn2)[C@H]1O
Papp A→B at 1.5 h, 10 µM [4]: 19 ×10⁻⁶ cm/s | Papp B→A at 1.5 h, 10 µM [5]: 20 ×10⁻⁶ cm/s

OC[C@H]1O[C@H](Sc2ccc(Cl)c(Cl)c2)[C@H](O)[C@@H](n2cc(-c3nncs3)nn2)[C@H]1O
Kd (Galectin-1 [1]): 1700 nM | Kd (Galectin-3 [2]): 1300 nM

OC[C@H]1O[C@H](Sc2ccc(Cl)c(Cl)c2)[C@H](O)[C@@H](n2cc(-c3cscn3)nn2)[C@H]1O
logD at 1 h [3]: > 4 | Kd (Galectin-1 [1]): 350 nM | Kd (Galectin-3 [2]): 8000 nM | Papp A→B at 1.5 h, 10 µM [4]: 6 ×10⁻⁶ cm/s | Papp B→A at 1.5 h, 10 µM [5]: 50 ×10⁻⁶ cm/s | hepatocyte CLint at 2 µM [6]: 1.1 µL/min/1e6 cells | hepatocyte CLint at 2 µM [7]: < 1.5 µL/min/1e6 cells | fraction unbound at 5 h, 2 µM [8]: 0.068 | fraction unbound at 5 h, 2 µM [9]: 0.033

OC[C@H]1O[C@H](Sc2cncc(Br)c2)[C@H](O)[C@@H](n2cc(-c3ccsc3)nn2)[C@H]1O
logD at 1 h [3]: 2 | Kd (Galectin-1 [1]): 680 nM | Kd (Galectin-3 [2]): 1700 nM | Papp A→B at 1.5 h, 10 µM [4]: 4.5 ×10⁻⁶ cm/s | Papp B→A at 1.5 h, 10 µM [5]: 31 ×10⁻⁶ cm/s

OC[C@H]1O[C@H](Sc2ccc(Cl)c(Cl)c2)[C@H](O)[C@@H](n2cc(-c3ccsc3)nn2)[C@H]1O
logD at 1 h [3]: 3.6 | Kd (Galectin-1 [1]): 280 nM | Kd (Galectin-3 [2]): 2100 nM | Papp A→B at 1.5 h, 10 µM [4]: 10 ×10⁻⁶ cm/s | Papp B→A at 1.5 h, 10 µM [5]: 18 ×10⁻⁶ cm/s | hepatocyte CLint at 2 µM [6]: 4.9 µL/min/1e6 cells | hepatocyte CLint at 2 µM [7]: 15 µL/min/1e6 cells | fraction unbound at 5 h, 2 µM [8]: 0.014 | fraction unbound at 5 h, 2 µM [9]: 0.015

OC[C@H]1O[C@H](Sc2cc(Cl)c(F)c(Cl)c2)[C@H](O)[C@@H](n2cc(-c3nccs3)nn2)[C@H]1O
IC50 at 72 h [10]: > 90000 nM | logD at 1 h [3]: 3.1 | Kd (Galectin-1 [1]): 410 nM | Kd (Galectin-3 [2]): 2700 nM | Papp A→B at 1.5 h, 10 µM [4]: 11 ×10⁻⁶ cm/s | Papp B→A at 1.5 h, 10 µM [5]: 31 ×10⁻⁶ cm/s | hepatocyte CLint at 2 µM [6]: < 1 µL/min/1e6 cells | hepatocyte CLint at 2 µM [7]: < 1.5 µL/min/1e6 cells | fraction unbound at 5 h, 2 µM [8]: 0.038 | fraction unbound at 5 h, 2 µM [9]: 0.013 | Kd (Galectin-4 [11]): 37000 nM | Kd (Galectin-4 [12]): 2500 nM | Kd (Galectin-7): 60000 nM | Kd (Galectin-8 [13]): 65000 nM | Kd (Galectin-8 [14]): 130000 nM | Kd (Galectin-9 [15]): 16000 nM | Kd (Galectin-9 [16]): 23000 nM | Kd (Galectin-1 [17]): 230 nM | Kd (Galectin-3 [18]): 5800 nM | Kd (Galectin-1 [19]): 644 nM | Kd (Galectin-1 [20]): 363 nM | Kd (Galectin-3 [21]): 62600 nM | Kd (Galectin-3 [22]): 70400 nM | Activity (A549): 46.6% | IC50 (Jurkat [23]): 2300 nM | clearance [24]: 7.5 mL/min/kg | Vd [25]: 0.4 L/kg | Tmax [26]: 30 min | Cmax [27]: 6900 ng/mL | AUC(0-inf) [28]: 3200 ng·h/mL | bioavailability [29]: > 99%

OC[C@H]1O[C@H](Sc2cc(Cl)c(F)c(Cl)c2)[C@H](O)[C@@H](n2cc(-c3cccs3)nn2)[C@H]1O
Kd (Galectin-1 [1]): 970 nM | Kd (Galectin-3 [2]): 1500 nM

OC[C@H]1O[C@@H](S[C@@H]2O[C@H](CO)[C@H](O)[C@H](n3cc(-c4ccsc4)nn3)[C@H]2O)[C@H](O)[C@@H](n2cc(-c3ccsc3)nn2)[C@H]1O
Kd (Galectin-1 [30]): < 10 nM | Kd (Galectin-3 [31]): 65 nM

OC[C@H]1O[C@H](Sc2ccc(Cl)c(Cl)c2)[C@H](O)[C@@H](n2cc(-c3ncc[nH]3)nn2)[C@H]1O
logD at 1 h [3]: 2.3 | Kd (Galectin-1 [1]): 640 nM | Kd (Galectin-3 [2]): 2100 nM | Papp A→B at 1.5 h, 10 µM [4]: 0.4 ×10⁻⁶ cm/s | Papp B→A at 1.5 h, 10 µM [5]: 25 ×10⁻⁶ cm/s

CN(C)CCNC(=O)COc1c2cccc1Cc1cccc(c1OCC(=O)NCCN(C)C)Cc1cccc(c1OCC(=O)NCCN(C)C)Cc1cccc(c1OCC(=O)NCCN(C)C)C2
inhibition (Jurkat [32]): inactive
